Measured values taken from paper PMC9569420 (Communications Biology, 2022).
Where “and” joins values, the source holds several entries; their conditions need not be identical. Identical values can stand only once.

Key:
[1] = target: T1, TXK (Homo sapiens, UniProt P42681); assay: HotSpot kinase assay; format: biochemical; settings: read-out: % Enzyme Activity (relative to DMSO controls)
T1 construct: purchased Reaction Biology Corporation

[2] = target: T2, KHS/MAP4K5 (Homo sapiens, UniProt Q9Y4K4); assay: HotSpot kinase assay; format: biochemical; settings: read-out: % Enzyme Activity (relative to DMSO controls)
T2 construct: purchased Reaction Biology Corporation

[3] = tested on: HSV-2(G); assay: HSV plaque assay, HaCat cells; format: cell-based; settings: Human alphaherpesvirus 2, HaCaT, read-out: inhibition of HSV-2 infection
Description: (§1) After 48 h incubation, plaques were counted by immunoassay using an anti–human IgG antibody peroxidase conjugate (PA1-86064, Thermo Fisher)[33]. […] Western blots were prepared and probed for gD as a marker of bound virus and β-actin as a control.

[4] = target: T3, PKN2/PRK2 (Homo sapiens, UniProt Q16513); assay: HotSpot kinase assay; format: biochemical; settings: read-out: % Enzyme Activity (relative to DMSO controls)
T3 construct: purchased Reaction Biology Corporation

[5] = target: T4, FGR (Homo sapiens, UniProt P09769); assay: HotSpot kinase assay; format: biochemical; settings: read-out: % Enzyme Activity (relative to DMSO controls)
T4 construct: purchased Reaction Biology Corporation

[6] = target: T5, CK2a2 (Homo sapiens, UniProt P19784); assay: HotSpot kinase assay; format: biochemical; settings: read-out: % Enzyme Activity (relative to DMSO controls)
T5 construct: purchased Reaction Biology Corporation

[7] = target: T6, MAPKAPK3 (Homo sapiens, UniProt Q16644); assay: HotSpot kinase assay; format: biochemical; settings: read-out: % Enzyme Activity (relative to DMSO controls)
T6 construct: purchased Reaction Biology Corporation

[8] = tested on: PtdS and Akt; assay: translocation of PtdS and Akt to the outer leaflet (microscopy), HSV-2 infected HaCat; format: cell-based, human; settings: 10µM
[9] = tested on: HaCat cells; assay: cell proliferation and viability, ~50% confluence; settings: 0.1–100 μM, 24 and 72 h; except 72 h at 100 μM
[10] = target: T7, CDK2/cyclin A (Homo sapiens, UniProt P24941); assay: HotSpot kinase assay; format: biochemical; settings: read-out: % Enzyme Activity (relative to DMSO controls)
T7 construct: purchased Reaction Biology Corporation

[11] = target: T8, HCK (Homo sapiens, UniProt P08631); assay: HotSpot kinase assay; format: biochemical; settings: read-out: % Enzyme Activity (relative to DMSO controls)
T8 construct: purchased Reaction Biology Corporation

[12] = target: T9, AKT1 (Homo sapiens, UniProt P31749); assay: biochemical
T9 construct: purchased Reaction Biology Corporation

[13] = tested on: HaCat cells; assay: viability of confluent cells; format: cell-based, human; settings: 10 μM; for viability, odu as a percentage of the DMSO control: replicates (Fig 1c source data)
[14] = viability of confluent cells; format: cell-based, human; settings: human, HaCat cells at 90–100% confluence, 120 h, replicates (Fig 1c source data), read-out: viability, odu as a percentage of the DMSO control
[15] = target: T10, c-MET (Homo sapiens, UniProt P08581); assay: biochemical; settings: read-out: % Enzyme Activity (relative to DMSO controls)
T10 construct: purchased Reaction Biology Corporation

[16] = target: T11, PKG1b (Homo sapiens, UniProt Q13976); assay: HotSpot kinase assay; format: biochemical; settings: read-out: % Enzyme Activity (relative to DMSO controls)
T11 construct: purchased Reaction Biology Corporation

[17] = target: T12, RIPK5 (Homo sapiens, UniProt Q6XUX3); assay: HotSpot kinase assay; format: biochemical; settings: read-out: % Enzyme Activity (relative to DMSO controls)
T12 construct: purchased Reaction Biology Corporation

[18] = target: T13, PKN1/PRK1 (Homo sapiens, UniProt Q16512); assay: HotSpot kinase assay; format: biochemical; settings: read-out: % Enzyme Activity (relative to DMSO controls)
T13 construct: purchased Reaction Biology Corporation

[19] = target: T14, CK1a1L (Homo sapiens, UniProt Q8N752); assay: HotSpot kinase assay; format: biochemical; settings: read-out: % Enzyme Activity (relative to DMSO controls)
T14 construct: purchased Reaction Biology Corporation

[20] = target: T15, MEKK6 (Homo sapiens, UniProt O95382); assay: HotSpot kinase assay; format: biochemical; settings: read-out: % Enzyme Activity (relative to DMSO controls)
T15 construct: purchased Reaction Biology Corporation

[21] = target: T16, FLT4/VEGFR3 (Homo sapiens, UniProt P35916); assay: HotSpot kinase assay; format: biochemical; settings: read-out: % Enzyme Activity (relative to DMSO controls)
T16 construct: purchased Reaction Biology Corporation

[22] = target: T17, CDK8/cyclin C (Homo sapiens, UniProt P49336); assay: HotSpot kinase assay; format: biochemical; settings: read-out: % Enzyme Activity (relative to DMSO controls)
T17 construct: purchased Reaction Biology Corporation

[23] = tested on: HSV-2(G); assay: nuclear transport of VP-16 (immunoblot of nuclear extracts); format: cell-based; settings: HaCat and primary vaginal cells, 1 h; CIMSS 10 μM, antibody 2 μg/ml
Description: To quantify viral entry, cells were synchronously infected by allowing virus to bind to cells at 4°C for 4 h, washed, and then transferred to 37 °C. CIMSS or control DMSO was added at the time of temperature shift. At indicated times post-temperature shift, the cells were treated with a low pH buffer to inactivate virus that had not penetrated, washed, overlaid with medium containing methyl cellulose and viral plaques were counted at 48 h. Entry was also assessed by immunoblotting nuclear extracts for VP16. […] Nuclear extracts were prepared after 1 h and analyzed by western blot with antibodies targeting VP16, histone H1 and golgin-97[5]. The non-nuclear fraction was also probed for golgin-97 as a positive control. […] After 1 or 4 h of incubation, the cells were fixed. Plasma membranes were stained using Image -IT^TM LIVE Plasma Membrane kit and nuclei were stained with DAPI (Thermo Fisher Scientific, Cat 134406). The percentage of GFP + nuclei was determined by counting ~200 cells over 3–4 fields. Images were obtained with Leica SP8 microscope (objective 63 × 1.4); xz images were captured with optical slice 0.6 µm, 25–30 slices per image.

[24] = target: T18, FLT1/VEGFR1 (Homo sapiens, UniProt P17948); assay: HotSpot kinase assay; format: biochemical; settings: read-out: % Enzyme Activity (relative to DMSO controls)
T18 construct: purchased Reaction Biology Corporation

[25] = target: T19, TLK1 (Homo sapiens, UniProt Q9UKI8); assay: HotSpot kinase assay; format: biochemical; settings: read-out: % Enzyme Activity (relative to DMSO controls)
T19 construct: purchased Reaction Biology Corporation

[26] = target: T20, PKCIOTA (Homo sapiens, UniProt P41743); assay: HotSpot kinase assay; format: biochemical; settings: read-out: % Enzyme Activity (relative to DMSO controls)
T20 construct: purchased Reaction Biology Corporation

[27] = tested on: MDCK-MDR1 cell; settings: 5 µM
[28] = target: T21, STK38L/NDR2 (Homo sapiens, UniProt Q9Y2H1); assay: HotSpot kinase assay; format: biochemical; settings: read-out: % Enzyme Activity (relative to DMSO controls)
T21 construct: purchased Reaction Biology Corporation

[29] = target: T22, GCK/MAP4K2 (Homo sapiens, UniProt Q12851); assay: HotSpot kinase assay; format: biochemical; settings: read-out: % Enzyme Activity (relative to DMSO controls)
T22 construct: purchased Reaction Biology Corporation

[30] = target: T23, CLK1 (Homo sapiens, UniProt P49759); assay: HotSpot kinase assay; format: biochemical; settings: read-out: % Enzyme Activity (relative to DMSO controls)
T23 construct: purchased Reaction Biology Corporation

[31] = tested on: HSV-2(G); assay: HSV plaque assay, primary vaginal cells; format: cell-based; settings: Human alphaherpesvirus 2, read-out: inhibition of HSV-2 infection
Description: as §1

[32] = target: T24, MNK1 (Homo sapiens, UniProt Q9BUB5); assay: HotSpot kinase assay; format: biochemical; settings: read-out: % Enzyme Activity (relative to DMSO controls)
T24 construct: purchased Reaction Biology Corporation
T24 sequence (Q9BUB5 whole entry): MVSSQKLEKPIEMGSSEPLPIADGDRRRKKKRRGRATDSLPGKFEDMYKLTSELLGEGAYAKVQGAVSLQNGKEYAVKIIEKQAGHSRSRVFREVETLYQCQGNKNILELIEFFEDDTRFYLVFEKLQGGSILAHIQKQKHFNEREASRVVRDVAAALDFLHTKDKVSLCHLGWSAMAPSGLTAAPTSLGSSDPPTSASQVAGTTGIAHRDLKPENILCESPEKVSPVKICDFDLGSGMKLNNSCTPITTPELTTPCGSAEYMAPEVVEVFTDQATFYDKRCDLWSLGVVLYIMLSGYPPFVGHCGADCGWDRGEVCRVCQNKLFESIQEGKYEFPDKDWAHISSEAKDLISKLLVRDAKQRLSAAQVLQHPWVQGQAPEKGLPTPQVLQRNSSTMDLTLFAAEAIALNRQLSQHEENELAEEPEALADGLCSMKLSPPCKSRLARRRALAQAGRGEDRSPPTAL

T9 sequence (P31749 whole entry): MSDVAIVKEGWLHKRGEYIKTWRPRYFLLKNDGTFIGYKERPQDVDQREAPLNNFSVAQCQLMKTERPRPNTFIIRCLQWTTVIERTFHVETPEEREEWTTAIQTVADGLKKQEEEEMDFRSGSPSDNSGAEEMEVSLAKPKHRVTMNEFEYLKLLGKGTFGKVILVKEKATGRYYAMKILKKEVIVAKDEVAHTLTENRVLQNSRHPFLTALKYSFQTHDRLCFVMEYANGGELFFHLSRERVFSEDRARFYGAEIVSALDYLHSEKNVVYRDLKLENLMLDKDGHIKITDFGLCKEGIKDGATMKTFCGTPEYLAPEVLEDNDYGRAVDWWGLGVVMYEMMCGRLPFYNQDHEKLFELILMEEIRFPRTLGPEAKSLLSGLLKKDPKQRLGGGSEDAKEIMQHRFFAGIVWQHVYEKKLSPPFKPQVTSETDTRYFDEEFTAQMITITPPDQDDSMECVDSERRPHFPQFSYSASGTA
T15 sequence (O95382 whole entry): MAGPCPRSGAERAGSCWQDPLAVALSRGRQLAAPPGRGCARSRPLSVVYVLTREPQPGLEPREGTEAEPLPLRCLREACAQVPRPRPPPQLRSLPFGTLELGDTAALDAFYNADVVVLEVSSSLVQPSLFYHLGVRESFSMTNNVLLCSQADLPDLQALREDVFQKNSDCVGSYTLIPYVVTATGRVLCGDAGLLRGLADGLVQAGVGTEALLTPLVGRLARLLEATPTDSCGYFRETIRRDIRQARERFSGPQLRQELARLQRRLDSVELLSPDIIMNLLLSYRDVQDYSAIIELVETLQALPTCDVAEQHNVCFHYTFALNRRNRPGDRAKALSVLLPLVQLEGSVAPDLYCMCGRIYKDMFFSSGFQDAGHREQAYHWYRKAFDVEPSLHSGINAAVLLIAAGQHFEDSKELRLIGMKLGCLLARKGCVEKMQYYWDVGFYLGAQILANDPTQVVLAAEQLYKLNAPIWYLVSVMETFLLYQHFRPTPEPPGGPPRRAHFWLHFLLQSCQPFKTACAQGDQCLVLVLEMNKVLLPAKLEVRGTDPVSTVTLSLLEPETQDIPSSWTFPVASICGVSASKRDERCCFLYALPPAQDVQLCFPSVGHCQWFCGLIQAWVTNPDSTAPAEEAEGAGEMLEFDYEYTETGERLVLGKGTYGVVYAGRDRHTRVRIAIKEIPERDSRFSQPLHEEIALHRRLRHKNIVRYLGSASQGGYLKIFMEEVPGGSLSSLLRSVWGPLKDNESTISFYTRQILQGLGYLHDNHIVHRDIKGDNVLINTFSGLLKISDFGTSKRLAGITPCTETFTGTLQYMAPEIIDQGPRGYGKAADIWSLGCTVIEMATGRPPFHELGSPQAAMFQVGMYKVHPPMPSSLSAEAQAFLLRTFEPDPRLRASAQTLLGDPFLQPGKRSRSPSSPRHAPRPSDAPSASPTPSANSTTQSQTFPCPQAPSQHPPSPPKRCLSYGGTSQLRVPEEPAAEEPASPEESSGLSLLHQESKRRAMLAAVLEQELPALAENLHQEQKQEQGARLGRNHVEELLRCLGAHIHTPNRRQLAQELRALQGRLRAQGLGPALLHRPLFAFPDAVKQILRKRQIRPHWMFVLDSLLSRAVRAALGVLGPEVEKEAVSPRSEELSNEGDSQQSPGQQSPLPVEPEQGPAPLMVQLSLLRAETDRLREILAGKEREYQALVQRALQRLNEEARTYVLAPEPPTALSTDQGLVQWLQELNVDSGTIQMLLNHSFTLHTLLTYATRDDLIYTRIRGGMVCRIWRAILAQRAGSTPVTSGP
T23 sequence (P49759 whole entry): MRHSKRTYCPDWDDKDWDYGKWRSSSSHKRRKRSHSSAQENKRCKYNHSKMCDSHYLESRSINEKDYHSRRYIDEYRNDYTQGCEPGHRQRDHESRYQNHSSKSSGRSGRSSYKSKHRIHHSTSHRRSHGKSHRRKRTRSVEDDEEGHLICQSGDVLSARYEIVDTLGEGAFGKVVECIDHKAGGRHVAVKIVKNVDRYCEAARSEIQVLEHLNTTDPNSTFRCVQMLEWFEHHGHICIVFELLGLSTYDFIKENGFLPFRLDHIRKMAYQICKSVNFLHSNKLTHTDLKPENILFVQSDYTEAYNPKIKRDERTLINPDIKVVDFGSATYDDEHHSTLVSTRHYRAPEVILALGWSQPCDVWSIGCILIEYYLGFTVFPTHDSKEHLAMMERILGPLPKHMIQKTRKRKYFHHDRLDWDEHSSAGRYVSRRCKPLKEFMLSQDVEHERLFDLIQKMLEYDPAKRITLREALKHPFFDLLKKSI
T11 sequence (Q13976 1-686 isoform Q13976-2): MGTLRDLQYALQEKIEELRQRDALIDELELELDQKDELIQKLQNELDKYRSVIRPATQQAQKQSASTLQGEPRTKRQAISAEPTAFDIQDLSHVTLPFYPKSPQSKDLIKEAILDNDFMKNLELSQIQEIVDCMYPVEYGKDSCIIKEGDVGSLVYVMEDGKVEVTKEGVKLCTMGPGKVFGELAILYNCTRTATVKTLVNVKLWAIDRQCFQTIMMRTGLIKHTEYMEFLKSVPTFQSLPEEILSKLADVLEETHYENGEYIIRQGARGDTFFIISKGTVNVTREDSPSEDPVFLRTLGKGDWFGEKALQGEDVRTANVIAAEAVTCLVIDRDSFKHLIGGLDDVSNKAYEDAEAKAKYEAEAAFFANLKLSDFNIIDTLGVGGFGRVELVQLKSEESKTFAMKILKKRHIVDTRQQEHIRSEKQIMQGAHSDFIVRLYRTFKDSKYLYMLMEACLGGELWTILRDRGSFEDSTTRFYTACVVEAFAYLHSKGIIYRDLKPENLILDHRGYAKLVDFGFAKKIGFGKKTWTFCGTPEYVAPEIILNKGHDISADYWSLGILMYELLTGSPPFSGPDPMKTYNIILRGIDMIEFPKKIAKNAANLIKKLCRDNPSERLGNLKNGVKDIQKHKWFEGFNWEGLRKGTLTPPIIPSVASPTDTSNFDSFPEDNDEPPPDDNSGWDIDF
T5 sequence (P19784 whole entry): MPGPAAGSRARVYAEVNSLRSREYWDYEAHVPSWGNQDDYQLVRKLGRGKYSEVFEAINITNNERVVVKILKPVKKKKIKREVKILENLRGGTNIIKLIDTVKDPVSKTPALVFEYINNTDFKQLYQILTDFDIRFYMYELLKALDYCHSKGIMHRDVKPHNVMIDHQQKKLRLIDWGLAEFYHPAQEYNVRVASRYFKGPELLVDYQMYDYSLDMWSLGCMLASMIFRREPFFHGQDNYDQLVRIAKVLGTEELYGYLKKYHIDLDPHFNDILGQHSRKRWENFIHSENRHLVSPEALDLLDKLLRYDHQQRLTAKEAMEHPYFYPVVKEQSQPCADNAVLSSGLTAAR
T12 sequence (Q6XUX3 whole entry): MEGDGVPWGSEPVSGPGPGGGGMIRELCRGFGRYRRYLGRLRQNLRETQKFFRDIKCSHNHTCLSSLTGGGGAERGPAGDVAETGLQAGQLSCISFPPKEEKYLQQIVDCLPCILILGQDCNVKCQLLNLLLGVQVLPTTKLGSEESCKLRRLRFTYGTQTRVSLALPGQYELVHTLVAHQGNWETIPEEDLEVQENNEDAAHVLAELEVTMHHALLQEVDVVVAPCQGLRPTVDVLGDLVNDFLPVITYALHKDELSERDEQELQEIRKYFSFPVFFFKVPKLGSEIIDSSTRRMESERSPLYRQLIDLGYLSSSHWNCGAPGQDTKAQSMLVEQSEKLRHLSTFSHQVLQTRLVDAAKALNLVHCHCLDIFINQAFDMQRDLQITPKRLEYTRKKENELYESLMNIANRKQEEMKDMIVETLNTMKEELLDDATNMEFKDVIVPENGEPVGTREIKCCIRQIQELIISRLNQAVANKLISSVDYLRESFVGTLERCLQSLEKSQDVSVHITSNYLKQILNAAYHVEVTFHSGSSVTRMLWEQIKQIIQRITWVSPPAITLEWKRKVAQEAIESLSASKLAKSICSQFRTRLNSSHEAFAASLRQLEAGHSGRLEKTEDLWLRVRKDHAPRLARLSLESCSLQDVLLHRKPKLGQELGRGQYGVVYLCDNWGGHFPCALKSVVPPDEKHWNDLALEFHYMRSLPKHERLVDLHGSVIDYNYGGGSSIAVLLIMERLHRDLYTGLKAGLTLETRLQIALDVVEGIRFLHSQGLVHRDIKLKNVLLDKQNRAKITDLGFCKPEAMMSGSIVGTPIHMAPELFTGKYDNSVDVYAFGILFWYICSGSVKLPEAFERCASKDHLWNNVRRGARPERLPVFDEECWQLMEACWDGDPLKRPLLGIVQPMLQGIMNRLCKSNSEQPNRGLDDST
T14 sequence (Q8N752 whole entry): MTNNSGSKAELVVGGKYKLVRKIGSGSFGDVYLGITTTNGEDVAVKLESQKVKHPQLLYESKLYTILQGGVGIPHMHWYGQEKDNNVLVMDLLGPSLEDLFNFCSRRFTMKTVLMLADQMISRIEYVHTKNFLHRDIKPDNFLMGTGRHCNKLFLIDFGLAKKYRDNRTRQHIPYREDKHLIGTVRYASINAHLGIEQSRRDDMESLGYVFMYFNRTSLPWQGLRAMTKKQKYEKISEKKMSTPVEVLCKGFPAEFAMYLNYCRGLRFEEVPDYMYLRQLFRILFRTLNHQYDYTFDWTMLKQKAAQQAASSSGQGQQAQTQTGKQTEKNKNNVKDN

Structure (SMILES): CO[C@@H]1[C@H](N(C)C(=O)CCC(=O)NCc2cn(CCCS(=O)(=O)O)nn2)C[C@H]2O[C@]1(C)n1c3ccccc3c3c4c(c5c6ccccc6n2c5c31)C(=O)NC4 [CIMSS]
- remaining activity at 10 µM [1]: 3.64%
- remaining activity at 10 µM [2]: 5.19%
- inhibition at 10 µM [3]: > 75%
- remaining activity at 10 µM [4]: 6.62%
- remaining activity at 10 µM [5]: 1.68%
- remaining activity at 10 µM [6]: 44.6%
- remaining activity at 10 µM [7]: 87.5%
- translocation of PtdS and Akt to the outer leaflet of the plasma membrane [8]: did not block
- inhibition of cell growth [9]: no significant inhibition
- remaining activity at 10 µM [10]: 5.14%
- remaining activity at 10 µM [11]: 7.23%
- IC50 ([12]; Supplementary Table 1, read-out: IC50 (Molar concentration)): 461 nM
- remaining activity at 10 µM ([12]; read-out: % Enzyme Activity (relative to DMSO controls), 10µM): 23.7%
- inhibition at 10 µM ([12]; read-out: inhibition of Akt1): > 75%
- viability, odu as a percentage of the DMSO control ([13]; 24 h): 123% and 93.2% and 107%
- viability, odu as a percentage of the DMSO control ([13]; 120 h): 88.4% and 84%
- cytotoxicity ([13]; up to 120 h): little or no cytotoxicity
- viability at 120 h, 10 µM [14]: 98%
- remaining activity at 10 µM [15]: 12.4%
- remaining activity at 10 µM [16]: 13.9%
- remaining activity at 10 µM [17]: 22.7%
- remaining activity at 10 µM [18]: 2.22%
- remaining activity at 10 µM [19]: 82.8%
- remaining activity at 10 µM [20]: 110%
- remaining activity at 10 µM [21]: 1.97%
- remaining activity at 10 µM [22]: 10.1%
- nuclear transport of VP-16 [23]: inhibited
- remaining activity at 10 µM [24]: 2.92%
- remaining activity at 10 µM [25]: 26.1%
- remaining activity at 10 µM [26]: 31.5%
- Recover % [27]: 96%
- remaining activity at 10 µM [28]: 22.7%
- remaining activity at 10 µM [29]: 4.74%
- remaining activity at 10 µM [30]: 4.05%
- inhibition at 10 µM [31]: > 75%
- remaining activity at 10 µM [32]: 42.6%
